For 16 compounds, EC50 results are on record in patent US20060035961A1, “Cyclopentane heptan(ENE)OIC acid, 2-heteroarylalkenyl derivatives as therapeutic agents” (ALLERGAN, INC., priority 2004, published 2006).

Common to all, as to format: cell-based
Assay [1] addresses T1, hFP (Homo sapiens, UniProt P43088).
T1 construct: expressed in transfected cells; host or cells: HEK-293(EBNA)
Put plainly: FLIPR calcium signal study, hFP. As to conditions: HEK-293(EBNA) cells expressing recombinant human receptor, read-out: HFP functional data. How it is done: (§1) Methods for FLIPR™ Studies (a) Cell Culture
(§2) HEK-293(EBNA) cells, stably expressing one type or subtype of recombinant human prostaglandin receptors (prostaglandin receptors expressed: hDP/Gqs5; hEP1; hEP2/Gqs5; hEP3A/Gqi5; hEP4/Gqs5; hFP; hIP; hTP), were cultured in 100 mm culture dishes in high-glucose DMEM medium containing 10% fetal bovine serum, 2 mM 1-glutamine, 250 μg/ml geneticin (G418) and 200 μg/ml hygromycin B as selection markers, and 100 units/ml penicillin G, 100 μg/ml streptomycin and 0.25 μg/ml amphotericin B.
(§3) (b) Calcium Signal Studies on the FLIPR™
(§4) Cells were seeded at a density of 5×10^4 cells per well in Biocoat® Poly-D-lysine-coated black-wall, clear-bottom 96-well plates (Becton-Dickinson) and allowed to attach overnight in an incubator at 37° C. Cells were then washed two times with HBSS-HEPES buffer (Hanks Balanced Salt Solution without bicarbonate and phenol red, 20 mM HEPES, pH 7.4) using a Denley Cellwash plate washer (Labsystems). After 45 minutes of dye-loading in the dark, using the calcium-sensitive dye Fluo-4 AM at a final concentration of 2 μM, plates were washed four times with HBSS-HEPES buffer to remove excess dye leaving 100 μl in each well. Plates were re-equilibrated to 37° C. for a few minutes.
(§5) Cells were excited with an Argon laser at 488 nm, and emission was measured through a 510-570 nm bandwidth emission filter (FLIPR™, Molecular Devices, Sunnyvale, Calif.). Drug solution was added in a 50 μl volume to each well to give the desired final concentration. The peak increase in fluorescence intensity was recorded for each well. On each plate, four wells each served as negative (HBSS-HEPES buffer) and positive controls (standard agonists: BW245C (hDP); PGE2 (hEP1; hEP2/Gqs5; hEP3A/Gqi5; hEP4/Gqs5); PGF2, (hFP); carbacyclin (hIP); U-46619 (hTP), depending on receptor). The peak fluorescence change in each drug-containing well was then expressed relative to the controls.
(§6) Compounds were tested in a high-throughput (HTS) or concentration-response (CoRe) format. In the HTS format, forty-four compounds per plate were examined in duplicates at a concentration of 10^−5 M. To generate concentration-response curves, four compounds per plate were tested in duplicates in a concentration range between 10^−5 and 10^−11 M. The duplicate values were averaged. In either, HTS or CoRe format each compound was tested on at least 3 separate plates using cells from different passages to give an n≧3.

Assay [2] has as its target T2, hTP (Homo sapiens, UniProt P21731).
T2 construct: expressed in transfected cells; host or cells: HEK-293(EBNA)
T2 sequence (P21731 1-343): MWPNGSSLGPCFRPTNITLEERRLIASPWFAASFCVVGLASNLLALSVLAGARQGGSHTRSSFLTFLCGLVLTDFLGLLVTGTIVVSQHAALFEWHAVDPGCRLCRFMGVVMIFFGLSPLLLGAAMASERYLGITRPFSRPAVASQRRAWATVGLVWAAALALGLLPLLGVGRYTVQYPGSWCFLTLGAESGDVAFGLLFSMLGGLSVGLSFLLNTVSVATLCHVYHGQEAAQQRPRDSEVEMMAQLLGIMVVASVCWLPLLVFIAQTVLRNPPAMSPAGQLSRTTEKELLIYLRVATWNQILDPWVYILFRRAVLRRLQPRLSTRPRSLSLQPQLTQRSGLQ
As to the kind of experiment: FLIPR calcium signal study, hTP. As to conditions: HEK-293(EBNA) cells expressing recombinant human receptor, read-out: HTP functional data. As for the experimental part: as §1, §2, §3, §4, §5, §6

Assay [3] addresses T3, hIP (Homo sapiens, UniProt P43119).
T3 construct: expressed in transfected cells; host or cells: HEK-293(EBNA)
Put plainly: FLIPR calcium signal study, hIP. As to conditions: HEK-293(EBNA) cells expressing recombinant human receptor, read-out: HIP functional data. How it is done: as §1, §2, §3, §4, §5
Compounds were tested in a high-throughput (HTS) or concentration-response (CoRe) format. […]

Assay [4] has as its target T4, hEP4/Gqs5 (Homo sapiens, UniProt P35408).
T4 construct: expressed in transfected cells; host or cells: HEK-293(EBNA)
As to the kind of experiment: FLIPR calcium signal study, hEP4/Gqs5. As to conditions: HEK-293(EBNA) cells expressing recombinant human receptor, read-out: HEP4 functional data. How it is done:
as §1, §2, §3, §4, §5, §6

Assay [5] deals with T5, hEP3A/Gqi5 (Homo sapiens, UniProt P43115).
T5 construct: expressed in transfected cells; host or cells: HEK-293(EBNA)
T5 sequence (P43115 1-390): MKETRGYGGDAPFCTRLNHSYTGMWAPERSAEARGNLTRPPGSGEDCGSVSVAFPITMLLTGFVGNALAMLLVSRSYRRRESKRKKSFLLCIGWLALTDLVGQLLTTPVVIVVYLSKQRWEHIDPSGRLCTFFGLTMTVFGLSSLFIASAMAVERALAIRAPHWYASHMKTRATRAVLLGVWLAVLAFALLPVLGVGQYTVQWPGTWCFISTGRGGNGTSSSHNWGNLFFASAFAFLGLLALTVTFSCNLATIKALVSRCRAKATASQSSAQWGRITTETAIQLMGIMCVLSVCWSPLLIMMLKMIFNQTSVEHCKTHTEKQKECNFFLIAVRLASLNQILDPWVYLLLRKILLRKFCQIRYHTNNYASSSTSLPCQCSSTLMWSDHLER
As to the kind of experiment: FLIPR calcium signal study, hEP3A/Gqi5. As to conditions: HEK-293(EBNA) cells expressing recombinant human receptor, read-out: HEP3A functional data. How it is done: as §1, §2, §3
Cells were seeded at a density of 5×10^4 cells per well in Biocoat® Poly-D-lysine-coated black-wall, clear-bottom 96-well plates (Becton-Dickinson) and allowed to attach overnight in an incubator at 37° C. Cells were then washed two times with HBSS-HEPES buffer (Hanks Balanced Salt Solution without bicarbonate and phenol red, 20 mM HEPES, pH 7.4) using a Denley Cellwash plate washer (Labsystems). […]
Cells were excited with an Argon laser at 488 nm, and emission was measured through a 510-570 nm bandwidth emission filter (FLIPR™, Molecular Devices, Sunnyvale, Calif.). […] The peak increase in fluorescence intensity was recorded for each well. […] The peak fluorescence change in each drug-containing well was then expressed relative to the controls. […]

T3 sequence (P43119 whole entry): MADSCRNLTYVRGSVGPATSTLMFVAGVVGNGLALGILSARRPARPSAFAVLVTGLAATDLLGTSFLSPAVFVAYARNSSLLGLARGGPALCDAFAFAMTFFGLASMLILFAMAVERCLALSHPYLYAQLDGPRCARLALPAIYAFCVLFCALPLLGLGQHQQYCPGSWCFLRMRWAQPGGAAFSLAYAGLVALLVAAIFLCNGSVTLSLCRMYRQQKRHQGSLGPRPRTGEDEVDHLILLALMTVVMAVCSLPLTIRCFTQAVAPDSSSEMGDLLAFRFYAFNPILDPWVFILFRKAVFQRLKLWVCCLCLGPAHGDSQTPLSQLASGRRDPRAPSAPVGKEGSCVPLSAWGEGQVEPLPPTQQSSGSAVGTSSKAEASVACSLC
T4 sequence (P35408 whole entry): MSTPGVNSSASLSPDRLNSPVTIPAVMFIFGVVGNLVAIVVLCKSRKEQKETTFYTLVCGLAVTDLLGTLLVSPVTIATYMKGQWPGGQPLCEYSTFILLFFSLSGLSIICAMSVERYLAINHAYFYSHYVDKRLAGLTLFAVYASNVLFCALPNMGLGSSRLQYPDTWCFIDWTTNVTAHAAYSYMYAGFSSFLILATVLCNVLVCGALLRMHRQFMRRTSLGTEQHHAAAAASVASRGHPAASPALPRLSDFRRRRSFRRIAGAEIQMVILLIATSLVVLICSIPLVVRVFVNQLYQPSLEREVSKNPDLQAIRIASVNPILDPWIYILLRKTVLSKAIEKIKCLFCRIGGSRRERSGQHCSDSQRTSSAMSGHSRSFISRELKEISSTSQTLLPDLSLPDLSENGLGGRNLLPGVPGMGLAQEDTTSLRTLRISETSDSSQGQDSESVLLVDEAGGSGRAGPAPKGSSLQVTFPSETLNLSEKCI
T1 sequence (P43088 whole entry): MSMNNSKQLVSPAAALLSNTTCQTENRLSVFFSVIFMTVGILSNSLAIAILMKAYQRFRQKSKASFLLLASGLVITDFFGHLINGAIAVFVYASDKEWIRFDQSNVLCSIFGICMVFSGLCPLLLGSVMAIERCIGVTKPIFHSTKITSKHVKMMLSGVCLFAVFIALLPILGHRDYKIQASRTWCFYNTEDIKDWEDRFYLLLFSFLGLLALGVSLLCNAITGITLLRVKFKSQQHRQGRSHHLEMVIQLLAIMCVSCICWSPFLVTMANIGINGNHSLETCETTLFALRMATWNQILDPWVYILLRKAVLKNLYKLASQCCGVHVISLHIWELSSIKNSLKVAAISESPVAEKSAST

As for `Cc1sc(CC[C@H](O)/C=C/[C@H]2CCC(O)[C@@H]2C/C=C\CCCC(N)=O)cc1Br` (stereo partly drawn) [Compound 23H, (Z)-7-{(1R,2R)-2-[(E)-(S)-5-(4-Bromo-5-methyl-thiophen-2-yl)-3-hydroxy-pent-1-enyl]-5-hydroxy-cyclopentyl}-hept-5-enoic acid amide], the EC50 was more than 10 µM in assay [1] and 2.13 µM in assay [2].
In the case of `C=CC1CC(O)[C@H](C/C=C\CCCC(=O)NCCO)[C@H]1/C=C/[C@@H](O)CCc1cc(Br)c(C)s1` (stereo partly drawn) [Compound 12H, (Z)-7-{(1R,2S)-2-[(E)-(S)-5-(4-Bromo-5-methyl-thiophen-2-yl)-3-hydroxy-pent-1-enyl]-5-hydroxy-3-vinyl-cyclopentyl}-hept-5-enoic acid (2-hydroxy-ethyl)-amide], the EC50 in assay [1], in assay [3], in assay [4] and in assay [2] was more than 10 µM each time.
Consider `C=CC1CC(O)[C@H](C/C=C\CCCC(N)=O)[C@H]1/C=C/[C@@H](O)CCc1cc(Br)c(C)s1` (stereo partly drawn) [Compound 13L, (Z)-7-{(1R,2S)-2-[(E)-(S)-5-(4-Bromo-5-methyl-thiophen-2-yl)-3-hydroxy-pent-1-enyl]-5-hydroxy-3-vinyl-cyclopentyl}-hept-5-enoic acid amide], for which the EC50 in assay [4] was more than 10 µM.
The same measure, in the same setting: for `Cc1sc(CC[C@H](O)/C=C/[C@H]2C(C)CC(O)[C@@H]2C/C=C\CCCC(=O)NCCO)cc1Br` (stereo partly drawn) [Compound 16L, (Z)-7-{(1R,2R)-2-[(E)-(S)-5-(4-Bromo-5-methyl-thiophen-2-yl)-3-hydroxy-pent-1-enyl]-5-hydroxy-3-methyl-cyclopentyl}-hept-5-enoic acid (2-hydroxy-ethyl)-amide] the value was more than 10 µM.
As for `Cc1sc(CC[C@H](O)/C=C/[C@H]2C(C)CC(O)[C@@H]2C/C=C\CCCC(N)=O)cc1Br` (stereo partly drawn) [Compound 17L, (Z)-7-{(1R,2R)-2-[(E)-(S)-5-(4-Bromo-5-methyl-thiophen-2-yl)-3-hydroxy-pent-1-enyl]-5-hydroxy-3-methyl-cyclopentyl}-hept-5-enoic acid amide], the EC50 in assay [1] was more than 10 µM.
For the compound `CCNC(=O)CCC/C=C\C[C@H]1C(O)CC[C@@H]1/C=C/[C@@H](O)CCc1cc(Br)c(C)s1` (stereo partly drawn) [Compound 21H, (Z)-7-{(1R,2R)-2-[(E)-(S)-5-(4-Bromo-5-methyl-thiophen-2-yl)-3-hydroxy-pent-1-enyl]-5-hydroxy-cyclopentyl}-hept-5-enoic acid ethylamide], the EC50 in assay [1] and in assay [2] was more than 10 µM in each case.
For the compound `CCNC(=O)CCC/C=C\C[C@H]1C(O)CC(C)[C@@H]1/C=C/[C@@H](O)CCc1cc(Br)c(C)s1` (stereo partly drawn) [Compound 15L, (Z)-7-{(1R,2R)-2-[(E)-(S)-5-(4-Bromo-5-methyl-thiophen-2-yl)-3-hydroxy-pent-1-enyl]-5-hydroxy-3-methyl-cyclopentyl}-hept-5-enoic acid ethylamide], in assay [4], the EC50 was more than 10 µM.
Consider `C=CC1CC(O)[C@H](C/C=C\CCCC(N)=O)[C@H]1/C=C/[C@@H](O)CCc1cc(Br)c(C)s1` (stereo partly drawn) [Compound 13H, (Z)-7-{(1R,2S)-2-[(E)-(S)-5-(4-Bromo-5-methyl-thiophen-2-yl)-3-hydroxy-pent-1-enyl]-5-hydroxy-3-vinyl-cyclopentyl}-hept-5-enoic acid amide], for which the EC50 was 7.08 µM in assay [5], 0.584 µM in assay [1], more than 10 µM in assay [3] and 2.52 µM in assay [2].
Consider `Cc1sc(CC[C@H](O)/C=C/[C@H]2C(C)CC(O)[C@@H]2C/C=C\CCCC(=O)NCCO)cc1Br` (stereo partly drawn) [Compound 16H, (Z)-7-{(1R,2R)-2-[(E)-(S)-5-(4-Bromo-5-methyl-thiophen-2-yl)-3-hydroxy-pent-1-enyl]-5-hydroxy-3-methyl-cyclopentyl}-hept-5-enoic acid (2-hydroxy-ethyl)-amide], for which the values for the EC50 in assay [1] and in assay [2] were not below 10 µM and 1.38 µM, respectively.
Turning to `C=CC1CC(O)[C@H](C/C=C\CCCC(=O)NCCO)[C@H]1/C=C/[C@@H](O)CCc1cc(Br)c(C)s1` (stereo partly drawn) [Compound 12L, (Z)-7-{(1R,2S)-2-[(E)-(S)-5-(4-Bromo-5-methyl-thiophen-2-yl)-3-hydroxy-pent-1-enyl]-5-hydroxy-3-vinyl-cyclopentyl}-hept-5-enoic acid (2-hydroxy-ethyl)-amide], the EC50 in assay [1], in assay [3] and in assay [2] was more than 10 µM in each case.
In the case of `C=CC1CC(O)[C@H](C/C=C\CCCC(=O)NCC)[C@H]1/C=C/[C@@H](O)CCc1cc(Br)c(C)s1` (stereo partly drawn) [Compound 14H, (Z)-7-{(1R,2S)-2-[(E)-(S)-5-(4-Bromo-5-methyl-thiophen-2-yl)-3-hydroxy-pent-1-enyl]-5-hydroxy-3-vinyl-cyclopentyl}-hept-5-enoic acid ethylamide], the EC50 in assay [1] is more than 10 µM.
Regarding `Cc1sc(CC[C@H](O)/C=C/[C@H]2C(C)CC(O)[C@@H]2C/C=C\CCCC(N)=O)cc1Br` (stereo partly drawn) [Compound 17H, (Z)-7-{(1R,2R)-2-[(E)-(S)-5-(4-Bromo-5-methyl-thiophen-2-yl)-3-hydroxy-pent-1-enyl]-5-hydroxy-3-methyl-cyclopentyl}-hept-5-enoic acid amide], the EC50 was not below 10 µM in assay [1], more than 10 µM in assay [4] and 1.95 µM in assay [2].
Turning to `CCC1CC(O)[C@H](C/C=C\CCCC(N)=O)[C@H]1/C=C/[C@@H](O)CCc1cc(Br)c(C)s1` (stereo partly drawn) [Compound 20H, (Z)-7-{(1R,2R)-2-[(E)-(S)-5-(4-Bromo-5-methyl-thiophen-2-yl)-3-hydroxy-pent-1-enyl]-3-ethyl-5-hydroxy-cyclopentyl}-hept-5-enoic acid amide], the EC50 in assay [5] is more than 10 µM; in assay [1] it was 5.42 µM; in assay [2], more than 10 µM.
`Cc1sc(CC[C@H](O)/C=C/[C@H]2CCC(O)[C@@H]2C/C=C\CCCC(=O)NCCO)cc1Br` (stereo partly drawn) [Compound 22H, (Z)-7-{(1R,2R)-2-[(E)-(S)-5-(4-Bromo-5-methyl-thiophen-2-yl)-3-hydroxy-pent-1-enyl]-5-hydroxy-cyclopentyl}-hept-5-enoic acid (2-hydroxy-ethyl)-amide]: the EC50 in assay [1] and in assay [2] was more than 10 µM in each case.
Regarding `CCNC(=O)CCC/C=C\C[C@H]1C(O)CC(C)[C@@H]1/C=C/[C@@H](O)CCc1cc(Br)c(C)s1` (stereo partly drawn) [Compound 15H, (Z)-7-{(1R,2R)-2-[(E)-(S)-5-(4-Bromo-5-methyl-thiophen-2-yl)-3-hydroxy-pent-1-enyl]-5-hydroxy-3-methyl-cyclopentyl}-hept-5-enoic acid ethylamide], the EC50 in assay [1], in assay [4] and in assay [2] was more than 10 µM each time.
Take `CCNC(=O)CCC/C=C\C[C@@H]1[C@@H](/C=C/[C@@H](O)CCc2cc(Br)c(C)s2)[C@H](O)C[C@@H]1O` [Control, reference compound]: the EC50 in assay [1] was 2.14 µM.
